Data published in US20230295087A1, “AGONISTS OF ROR GAMMAt” (BRISTOL-MYERS SQUIBB COMPANY, priority 2019, published 2023).

Each compound was assayed against T1, human RORgT (Homo sapiens, UniProt P51449) (assay: RORgT Gal4 Luciferase Reporter Gene Assay). Details: engineered Jurkat cells overexpressing RORgT (LBD or full length) fused with Gal4 Luc reporter; 18 hours at 37° C.; luminescence.
T1 construct: expressed in transfected cells
T1 sequence (P51449 267-516): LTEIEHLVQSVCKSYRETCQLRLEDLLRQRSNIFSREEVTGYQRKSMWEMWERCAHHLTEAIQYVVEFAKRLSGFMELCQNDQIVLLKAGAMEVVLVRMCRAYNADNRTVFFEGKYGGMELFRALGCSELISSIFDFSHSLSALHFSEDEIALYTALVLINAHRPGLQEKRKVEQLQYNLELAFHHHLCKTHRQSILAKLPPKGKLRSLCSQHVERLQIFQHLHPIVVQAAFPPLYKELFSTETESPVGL
Format: cell-based
Procedure, shortened: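 Jurkat cells expressing Gal4 Luc with either RORgT LBD (aa267-516) or full-length human RORgT, 10,000 cells/well, treated with compound (40 µM to 0.67 nM final, 3-fold dilutions) for 18 h at 37° C. Steady-Glo luminescence read; inhibition of constitutive activity as % signal-window reduction relative to a control compound.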

| SMILES | EC50 [nM] |
| --- | --- |
| CN1CCC(C(=O)N2CC[C@@]3(S(=O)(=O)c4ccccc4)c4ccc(OCc5c(Cl)cccc5Cl)cc4CC[C@@H]23)CC1=O (stereo partly drawn) [Example 55, 4-[(3aR,9bR)-9b-(benzenesulfonyl)-7-[(2,6-dichlorophenyl)methoxy]-1H,2H,3H,3aH,4H,5H,9bH-benzo[e]indole-3-carbonyl]-1-methylpiperidin-2-one] | 83 |
| O=C(CC1CCS(=O)(=O)CC1)N1CC[C@@]2(S(=O)(=O)c3ccccc3)c3ccc(OCc4c(Cl)cccc4Cl)cc3CC[C@@H]12 [Example 56, 4-{2-[(3aR,9bR)-9b-(benzenesulfonyl)-7-[(2,6-dichlorophenyl)methoxy]-1H,2H,3H,3aH,4H,5H,9bH-benzo[e]indol-3-yl]-2-oxoethyl}-1λ^6-thiane-1,1-dione] | 66 |
| CC(=O)N1CCC(C(=O)N2CC[C@@]3(S(=O)(=O)c4ccccc4)c4ccc(OCc5c(Cl)cccc5Cl)cc4CC[C@@H]23)CC1 [Example 57, 1-{4-[(3aR,9bR)-9b-(benzenesulfonyl)-7-[(2,6-dichlorophenyl)methoxy]-1H,2H,3H,3aH,4H,5H,9bH-benzo[e]indole-3-carbonyl]piperidin-1-yl}ethan-1-one] | 13 |
| CS(=O)(=O)NCC(=O)N1CC[C@@]2(S(=O)(=O)c3ccccc3)c3ccc(OCc4c(Cl)cccc4Cl)cc3CC[C@@H]12 [Example 58, N-{2-[(3aR,9bR)-9b-(benzenesulfonyl)-7-[(2,6-dichlorophenyl)methoxy]-1H,2H,3H,3aH,4H,5H,9bH-benzo[e]indol-3-yl]-2-oxoethyl} methanesulfonamide] | 587 |
| O=C(C1CCS(=O)(=O)C1)N1CC[C@@]2(S(=O)(=O)c3ccccc3)c3ccc(OCc4c(Cl)cccc4Cl)cc3CC[C@@H]12 (stereo partly drawn) [Example 59, 3-[(3aR,9bR)-9b-(benzenesulfonyl)-7-[(2,6-dichlorophenyl)methoxy]-1H,2H,3H,3aH,4H5H,9bH-benzo[e]indole-3-carbonyl]-1λ^6-thiolane-1,1-dione] | 16 |
| CS(=O)(=O)N1CCC(C(=O)N2CC[C@@]3(S(=O)(=O)c4ccccc4)c4ccc(OCc5c(Cl)cccc5Cl)cc4CC[C@@H]23)CC1 [Example 60, 4-[(3aR,9bR)-9b-(benzenesulfonyl)-7-[(2,6-dichlorophenyl)methoxy]-1H,2H,3H,3aH,4H,5H,9bH-benzo[e]indole-3-carbonyl]-1-methanesulfonylpiperidine] | 10 |
| CN1CCC(C(=O)N2CC[C@@]3(S(=O)(=O)c4ccccc4)c4ccc(OCc5c(Cl)cccc5Cl)cc4CC[C@@H]23)CC1 [Example 61, 4-[(3aR,9bR)-9b-(benzenesulfonyl)-7-[(2,6-dichlorophenyl)methoxy]-1H,2H,3H,3aH,4H,5H,9bH-benzo[e]indole-3-carbonyl]-I-methylpiperidine] | 76 |
| NC(=O)N1CCC(C(=O)N2CC[C@@]3(S(=O)(=O)c4ccccc4)c4ccc(OCc5c(Cl)cccc5Cl)cc4CC[C@@H]23)CC1 [Example 62, 4-[(3aR,9bR)-9b-(benzenesulfonyl)-7-[(2,6-dichlorophenyl)methoxy]-1H,2H,3H,3aH,4H,5H,9bH-benzo[e]indole-3-carbonyl]piperidine-1-carboxamide] | 15 |
| O=C(C1CCS(=O)(=O)N1)N1CC[C@@]2(S(=O)(=O)c3ccccc3)c3ccc(OCc4c(Cl)cccc4Cl)cc3CC[C@@H]12 (stereo partly drawn) [Example 63, 3-[(3aR,9bR)-9b-(benzenesulfonyl)-7-[(2,6-dichlorophenyl)methoxy]-1H,2H,3H,3aH,4H,5H,9bH-benzo[e]indole-3-carbonyl]-1λ^6,2-thiazolidine-1,1-dione] | 62 |
| O=C(CN1CCCCS1(=O)=O)N1CC[C@@]2(S(=O)(=O)c3ccccc3)c3ccc(OCc4c(Cl)cccc4Cl)cc3CC[C@@H]12 [Example 64, 2-{2-[(3aR,9bR)-9b-(benzenesulfonyl)-7-[(2,6-dichlorophenyl)methoxy]-1H,2H,3H,3aH,4H,5H,9bH-benzo[e]indol-3-yl]-2-oxoethyl}-1λ^6,2-thiazinane-1,1-dione] | 921 |
| O=C1NC(C(=O)N2CC[C@@]3(S(=O)(=O)c4ccccc4)c4ccc(OCc5c(Cl)cccc5Cl)cc4CC[C@@H]23)CO1 (stereo partly drawn) [Example 65, 4-[(3aR,9bR)-9b-(benzenesulfonyl)-7-[(2,6-dichlorophenyl)methoxy]-1H,2H,3H,3aH,4H,5H,9bH-benzo[e]indole-3-carbonyl]-1,3-oxazolidin-2-one] | 256 |
| O=C(O)C1CCC(C(=O)N2CC[C@@]3(S(=O)(=O)c4ccccc4)c4ccc(OCc5c(Cl)cccc5Cl)cc4CC[C@@H]23)CC1 (stereo partly drawn) [Example 66, 4-[(3aR,9bR)-9b-(benzenesulfonyl)-7-[(2,6-dichlorophenyl)methoxy]-1H,2H,3H,3aH,4H,5H,9bH-benzo[e]indole-3-carbonyl]cyclohexane-1-carboxylic acid] | 272 |
| CC(=O)NC1CC2(C1)CC(C(=O)N1CC[C@@]3(S(=O)(=O)c4ccccc4)c4ccc(OCc5c(Cl)cccc5Cl)cc4CC[C@@H]13)C2 (stereo partly drawn) [Example 67, N-{6-[(3aR,9bR)-9b-(benzenesulfonyl)-7-[(2,6-dichlorophenyl)methoxy]-1H,2H,3H,3aH,4H,5H,9bH-benzo[e]indole-3-carbonyl]spiro[3.3]heptan-2-yl}acetamide] | 416 |
| CC(=O)N1CC2(CC(C(=O)N3CC[C@@]4(S(=O)(=O)c5ccccc5)c5ccc(OCc6c(Cl)cccc6Cl)cc5CC[C@@H]34)C2)C1 [Example 68, 1-{6-[(3aR,9bR)-9b-(benzenesulfonyl)-7-[(2,6-dichlorophenyl)methoxy]-1H,2H,3H,3aH,4H,5H,9bH-benzo[e]indole-3-carbonyl]-2-azaspiro[3.3]heptan-2-yl}ethan-1-one] | 409 |
| CS(=O)(=O)CC(=O)N1CC[C@@]2(S(=O)(=O)c3ccccc3)c3ccc(OCc4c(Cl)cccc4Cl)cc3CC[C@@H]12 [Example 69, 1-[(3aR,9bR)-9b-(benzenesulfonyl)-7-[(2,6-dichlorophenyl)methoxy]-1H,2H,3H,3aH,4H,5H,9bH-benzo[e]indol-3-yl]-2-methanesulfonylethan-1-one] | 17 |
| NC(=O)CN1CC[C@@]2(S(=O)(=O)c3ccccc3)c3ccc(OCc4c(Cl)cccc4Cl)cc3CC[C@@H]12 [Example 70, 2-[(3aR,9bR)-9b-(benzenesulfonyl)-7-[(2,6-dichlorophenyl)methoxy]-1H,2H,3H,3aH,4H,5H,9bH-benzo[e]indol-3-yl]acetamide] | 153 |
| O=C1CCCN1CCN1CC[C@@]2(S(=O)(=O)c3ccccc3)c3ccc(OCc4c(Cl)cccc4Cl)cc3CC[C@@H]12 [Example 71, 1-{2-[(3aR,9bR)-9b-(benzenesulfonyl)-7-[(2,6-dichlorophenyl)methoxy]-1H,2H,3H,3aH,4H,5H,9bH-benzo[e]indol-3-yl]ethyl}pyrrolidin-2-one] | 667 |
| CC(C)(O)C(=O)N1CC[C@@]2(S(=O)(=O)c3ccccc3)c3ccc(OCc4c(Cl)cccc4Cl)cc3CC[C@@H]12 [Example 72, 1-[(3aR,9bR)-9b-(benzenesulfonyl)-7-[(2,6-dichlorophenyl)methoxy]-1H,2H,3H,3aH,4H,5H,9bH-benzo[e]indol-3-yl]-2-hydroxy-2-methylpropan-1-one] | 199 |
| CCOC(=O)CNC(=O)N1CC[C@@]2(S(=O)(=O)c3ccccc3)c3ccc(OCc4c(Cl)cccc4Cl)cc3CC[C@@H]12 [Example 73, ethyl 2-{[(3aR,9bR)-9b-(benzenesulfonyl)-7-[(2,6-dichlorophenyl)methoxy]-1H,2H,3H,3aH,4H,5H,9bH-benzo[e]indole-3-carbonyl]amino}acetate] | 314 |
